Drawing on US8530489B2 (Vertex Pharmaceuticals Incorporated, priority 2006, dated 2013), this text covers Ki for 28 compounds.

Sequence of PLK1 (P53350 whole entry): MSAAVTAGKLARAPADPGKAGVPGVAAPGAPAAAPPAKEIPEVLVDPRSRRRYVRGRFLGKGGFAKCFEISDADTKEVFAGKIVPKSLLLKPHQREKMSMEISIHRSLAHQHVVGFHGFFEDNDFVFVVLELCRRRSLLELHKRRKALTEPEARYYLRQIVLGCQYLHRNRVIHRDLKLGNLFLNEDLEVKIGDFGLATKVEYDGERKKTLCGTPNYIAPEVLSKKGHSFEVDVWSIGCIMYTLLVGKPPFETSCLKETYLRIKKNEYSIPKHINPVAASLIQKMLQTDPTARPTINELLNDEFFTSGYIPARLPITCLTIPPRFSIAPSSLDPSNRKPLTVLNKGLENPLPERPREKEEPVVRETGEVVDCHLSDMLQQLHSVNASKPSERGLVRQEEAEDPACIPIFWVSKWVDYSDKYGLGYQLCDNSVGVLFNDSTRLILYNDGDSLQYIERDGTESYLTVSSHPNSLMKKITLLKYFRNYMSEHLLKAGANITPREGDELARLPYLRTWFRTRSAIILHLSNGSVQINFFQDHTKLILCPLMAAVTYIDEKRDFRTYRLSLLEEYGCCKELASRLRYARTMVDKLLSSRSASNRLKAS

The target of the assay is PLK1 (Homo sapiens, UniProt P53350). Kind of assay: PLK1 Inhibition Assay I (radioactive-phosphate incorporation). To be noted: Ki(app); PLK1 Inhibition Assay I or II (table does not say which). The class given is biochemical. Summed up:
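Ki(app) values came from non-linear regression of initial rates after background subtraction, with phosphopeptide measured by phosphocellulose filter binding and scintillation counting. PLK1 at 2 nM was preincubated with compound (typically from 10 μM, 2-fold dilutions) for 10 min, then run 240 min at 25° C with 350 μM [γ-33P]ATP and 450 μM peptide substrate in HEPES pH 7.5 buffer.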
As to `CC(Nc1ncc(C#N)c(-c2c[nH]c3ncc(C(F)(F)F)cc23)n1)C1(F)CCN(C(=O)[C@@H](C)O)CC1` (stereo partly drawn) [Compound I-237, 2-(1-(4-fluoro-1-((R)-2-hydroxypropanoyl)piperidin-4-yl)ethylamino)-4-(5-(trifluoromethyl)-1H-pyrrolo[2,3-b]pyridin-3-yl)pyrimidine-5-carbonitrile], the Ki is under 3 nM. Take `C[C@@H](Nc1ncc(C#N)c(-c2c[nH]c3ncc(C(F)(F)F)cc23)n1)C1CCN(C(=O)C2CNC2)CC1` [Compound I-227, 2-((R)-1-(1-(azetidine-3-carbonyl)piperidin-4-yl)ethylamino)-4-(5-(trifluoromethyl)-1H-pyrrolo[2,3-b]pyridin-3-yl)pyrimidine-5-carbonitrile]: the Ki was under 3 nM. To `C[C@@H](Nc1ncc(C#N)c(-c2c[nH]c3ncc(C(F)(F)F)cc23)n1)c1ccc(N(C)CCCN(C)C)nc1` [Compound I-283, 2-((R)-1-(6-((3-(dimethylamino)propyl)(methyl)amino)pyridin-3-yl)ethylamino)-4-(5-(trifluoromethyl)-1H-pyrrolo[2,3-b]pyridin-3-yl)pyrimidine-5-carbonitrile] belongs 3 to 40 nM; to `C[C@@H](Nc1ncc(C#N)c(-c2c[nH]c3ncc(C(F)(F)F)cc23)n1)C1CCN(C(=O)[C@H](N)CC(N)=O)CC1` [Compound I-250, (3R)-3-amino-4-(4-((1R)-1-(5-cyano-4-(5-(trifluoromethyl)-1H-pyrrolo[2,3-b]pyridin-3-yl)pyrimidin-2-ylamino)ethyl)piperidin-1-yl)-4-oxobutanamide], under 3 nM; to `N#Cc1cnc(NC[C@H](O)CO)nc1-c1c[nH]c2ncc(C(F)(F)F)cc12` [Compound I-114, 2-((S)-2,3-dihydroxypropylamino)-4-(5-(trifluoromethyl)-1H-pyrrolo[2,3-b]pyridin-3-yl)pyrimidine-5-carbonitrile], 3 to 40 nM. As for `CC(Nc1ncc(C#N)c(-c2c[nH]c3ncc(C(F)(F)F)cc23)n1)c1ccc(N2CC(F)(C3CC3)C2)nc1` (stereo not shown) [Compound I-191, 2-(1-(6-(3-cyclopropyl-3-fluoroazetidin-1-yl)pyridin-3-yl)ethylamino)-4-(5-(trifluoromethyl)-1H-pyrrolo[2,3-b]pyridin-3-yl)pyrimidine-5-carbonitrile], the figure is 3 to 40 nM; as for `N#Cc1cnc(NC[C@H]2CC[C@@H](O)C2)nc1-c1c[nH]c2ncc(C(F)(F)F)cc12` [Compound I-81, 2-(((1S,3R)-3-hydroxycyclopentyl)methylamino)-4-(5-(trifluoromethyl)-1H-pyrrolo[2,3-b]pyridin-3-yl)pyrimidine-5-carbonitrile], 3 to 40 nM; as for `N#Cc1cnc(Sc2cccc(Cl)c2)nc1-c1c[nH]c2ncc(C(F)(F)F)cc12` [II-6, 2-(3-chlorophenylthio)-4-(5-(trifluoromethyl)-1H-pyrrolo[2,3-b]pyridin-3-yl)pyrimidine-5-carbonitrile], over 40 nM.

As for `C[C@@H](Nc1ncc(C#N)c(-c2c[nH]c3ncc(C(F)(F)F)cc23)n1)c1ccc(O)cc1` [Compound I-99, 2-((R)-1-(4-hydroxyphenyl)ethylamino)-4-(5-(trifluoromethyl)-1H-pyrrolo[2,3-b]pyridin-3-yl)pyrimidine-5-carbonitrile], the Ki is under 3 nM. As for `N#Cc1cnc(NC(CO)C2CCOC2)nc1-c1c[nH]c2ncc(C(F)(F)F)cc12` (stereo not shown) [Compound I-104, 2-(2-hydroxy-1-(tetrahydrofuran-3-yl)ethylamino)-4-(5-(trifluoromethyl)-1H-pyrrolo[2,3-b]pyridin-3-yl)pyrimidine-5-carbonitrile], the figure is over 40 nM; as for `CC(Nc1ncc(C#N)c(-c2c[nH]c3ncc(C(F)(F)F)cc23)n1)C1CCN(C(=O)N(C)C)CC1` (stereo not shown) [Compound I-157, 4-(1-(5-cyano-4-(5-(trifluoromethyl)-1H-pyrrolo[2,3-b]pyridin-3-yl)pyrimidin-2-ylamino)ethyl)-N,N-dimethylpiperidine-1-carboxamide], under 3 nM; as for `C[C@@H](Nc1ncc(C#N)c(-c2c[nH]c3ncc(C(F)(F)F)cc23)n1)[C@H]1CC[C@H](O)CC1` [Compound I-179, 2-((R)-1-((1r,4R)-4-hydroxycyclohexyl)ethylamino)-4-(5-(trifluoromethyl)-1H-pyrrolo[2,3-b]pyridin-3-yl)pyrimidine-5-carbonitrile], under 3 nM. To `C[C@@H](Nc1ncc(C#N)c(-c2c[nH]c3ncc(C(F)(F)F)cc23)n1)C1CCN(C(=O)[C@@H]2CCC[C@@H]2N)CC1` [Compound I-246, 2-((R)-1-(1-((1R,2S)-2-aminocyclopentanecarbonyl)piperidin-4-yl)ethylamino)-4-(5-(trifluoromethyl)-1H-pyrrolo[2,3-b]pyridin-3-yl)pyrimidine-5-carbonitrile] belongs under 3 nM. On to `CC(C)(Nc1ncc(C#N)c(-c2c[nH]c3ncc(C(F)(F)F)cc23)n1)C(=O)O` [IA-9, 2-(5-cyano-4-(5-(trifluoromethyl)-1H-pyrrolo[2,3-b]pyridin-3-yl)pyrimidin-2-ylamino)-2-methylpropanoic acid], for which the Ki is over 40 nM. As for `N#Cc1cnc(N[C@H]2CCOC2)nc1-c1c[nH]c2ncc(C(F)(F)F)cc12` [Compound I-78, 2-((S)-tetrahydrofuran-3-ylamino)-4-(5-(trifluoromethyl)-1H-pyrrolo[2,3-b]pyridin-3-yl)pyrimidine-5-carbonitrile], the figure is 3 to 40 nM; as for `CCC(Nc1ncc(C#N)c(-c2c[nH]c3ncc(C(F)(F)F)cc23)n1)C1CCN(C(C)=O)CC1` (stereo not shown) [Compound I-174, 2-(1-(1-acetylpiperidin-4-yl)propylamino)-4-(5-(trifluoromethyl)-1H-pyrrolo[2,3-b]pyridin-3-yl)pyrimidine-5-carbonitrile], under 3 nM.

As to `C[C@@H](Nc1ncc(C#N)c(-c2c[nH]c3ncc(C(F)(F)F)cc23)n1)C1CCN(C(=O)[C@@H](N)CO)CC1` [Compound I-239, 2-((R)-1-(1-((S)-2-amino-3-hydroxypropanoyl)piperidin-4-yl)ethylamino)-4-(5-(trifluoromethyl)-1H-pyrrolo[2,3-b]pyridin-3-yl)pyrimidine-5-carbonitrile], the Ki is under 3 nM. As for `C[C@H](Nc1ncc(C#N)c(-c2c[nH]c3ncc(C(F)(F)F)cc23)n1)c1ccc(O[C@H]2CCN(C)C2)cc1` [Compound I-161, 2-((S)-1-(4-((S)-1-methylpyrrolidin-3-yloxy)phenyl)ethylamino)-4-(5-(trifluoromethyl)-1H-pyrrolo[2,3-b]pyridin-3-yl)pyrimidine-5-carbonitrile], the figure is under 3 nM; as for `N#Cc1cnc(NC(CO)C2CCOCC2)nc1-c1c[nH]c2ncc(C(F)(F)F)cc12` (stereo not shown) [Compound I-105, 2-(2-hydroxy-1-(tetrahydro-2H-pyran-4-yl)ethylamino)-4-(5-(trifluoromethyl)-1H-pyrrolo[2,3-b]pyridin-3-yl)pyrimidine-5-carbonitrile], 3 to 40 nM. On to `N#Cc1cnc(NCc2ccc(-c3cccs3)cc2)nc1-c1c[nH]c2ncc(C(F)(F)F)cc12` [Compound I-54, 2-(4-(thiophen-2-yl)benzylamino)-4-(5-(trifluoromethyl)-1H-pyrrolo[2,3-b]pyridin-3-yl)pyrimidine-5-carbonitrile], for which the Ki was over 40 nM. As for `N#Cc1cnc(NCc2ccccc2)nc1-c1c[nH]c2ncc(C(F)(F)F)cc12` [Compound I-1, 2-(benzylamino)-4-(5-(trifluoromethyl)-1H-pyrrolo[2,3-b]pyridin-3-yl)pyrimidine-5-carbonitrile], the Ki was over 40 nM. As for `CNCC(=O)N1CCC(C(C)Nc2ncc(C#N)c(-c3c[nH]c4ncc(C(F)(F)F)cc34)n2)CC1` (stereo not shown) [Compound I-189, 2-(1-(1-(2-(methylamino)acetyl)piperidin-4-yl)ethylamino)-4-(5-(trifluoromethyl)-1H-pyrrolo[2,3-b]pyridin-3-yl)pyrimidine-5-carbonitrile], the figure is under 3 nM. To `CC(C)(Nc1ncc(C#N)c(-c2c[nH]c3ncc(C(F)(F)F)cc23)n1)C(=O)NCCO` [IA-14, 2-(5-cyano-4-(5-(trifluoromethyl)-1H-pyrrolo[2,3-b]pyridin-3-yl)pyrimidin-2-ylamino)-N-(2-hydroxyethyl)-2-methylpropanamide] belongs over 40 nM; to `CC(C)N1CCN(c2ccc([C@@H](C)Nc3ncc(C#N)c(-c4c[nH]c5ncc(C(F)(F)F)cc45)n3)cn2)CC1` [Compound I-284, 2-((R)-1-(6-(4-isopropylpiperazin-1-yl)pyridin-3-yl)ethylamino)-4-(5-(trifluoromethyl)-1H-pyrrolo[2,3-b]pyridin-3-yl)pyrimidine-5-carbonitrile], under 3 nM. As for `C[C@@H](Nc1ncc(C#N)c(-c2c[nH]c3ncc(C(F)(F)F)cc23)n1)C1CCN(C(=O)[C@@H]2CCCN2)CC1` [Compound I-236, 2-((R)-1-(1-((S)-pyrrolidine-2-carbonyl)piperidin-4-yl)ethylamino)-4-(5-(trifluoromethyl)-1H-pyrrolo[2,3-b]pyridin-3-yl)pyrimidine-5-carbonitrile], the Ki was under 3 nM. To `N#Cc1cnc(NC2CCOCC2)nc1-c1c[nH]c2ncc(C(F)(F)F)cc12` [Compound I-74, 2-(tetrahydro-2H-pyran-4-ylamino)-4-(5-(trifluoromethyl)-1H-pyrrolo[2,3-b]pyridin-3-yl)pyrimidine-5-carbonitrile] belongs 3 to 40 nM; to `CNc1ncc(C#N)c(-c2c[nH]c3ncc(C(F)(F)F)cc23)n1` [Compound I-2, 2-(methylamino)-4-(5-(trifluoromethyl)-1H-pyrrolo[2,3-b]pyridin-3-yl)pyrimidine-5-carbonitrile], over 40 nM; to `C[C@@H](Nc1ncc(C#N)c(-c2c[nH]c3ncc(C(F)(F)F)cc23)n1)C1CCN(C(=O)[C@@H](N)CC#N)CC1` [Compound I-255, 2-((R)-1-(1-((S)-2-amino-3-cyanopropanoyl)piperidin-4-yl)ethylamino)-4-(5-(trifluoromethyl)-1H-pyrrolo[2,3-b]pyridin-3-yl)pyrimidine-5-carbonitrile], under 3 nM.
